Measured values reported in patent publication US20030186947A1, “Compounds having activity as inhibitors of cytochrome P450RAI” (priority 2000, published 2003).
Like-named read-outs stand apart in the source and are kept apart here.

Tested on: skin of hairless mice
Conditions: topical in acetone, once daily days 1 through 5, mean ±SD, range 0-21
Description: This irritation is a direct result of activation of the RAR nuclear receptors. Analysis of retinoid topical irritation is also a highly reproducible method of determining in vivo retinoid potency. The SKH1-hrBR or hairless mouse provides a convenient animal model of topical irritation, since retinoid-induced skin flaking and abrasion can be readily scored by eye (Standeven et al., “Specific antagonist of retinoid toxicity in mice.” Toxicol. Appl. Pharmacol. 138:169-175, (1996); Thacher, et al., “Receptor specificity of retinoid-induced hyperplasia. Effect of RXR-selective agonists and correlation with topical irritation”. J. Pharm. Exp. Ther., 282:528-534, (1997)).
Female hairless mice (Crl:SKH1-hrBR), 5-7 weeks old, were obtained from Charles River Breeding Labs (Wilmington, Mass.). Animals were about 6 weeks old at the start of the experiments. Food (Purina Rodent Chow 5001) and reverse osmosis water were provided ad libitum. Mice were housed individually throughout the dosing period. In some experiments, mice that fit within a defined weight range, e.g., 21-25 g, were selected from the available stock and then randomly assigned to the various treatment groups, using body weight as the randomization variable.
The compounds to be tested were dissolved in acetone for application to the backs of the mice.
Mice were treated topically on the back in a volume of 4.0 ml/kg (0.07-0.12 ml) adjusted daily so as to deliver a fixed dose of test compound per g body weight. Doses are disclosed as nmol/25 g.
The mice were weighed daily and the dorsal skin was graded daily using separate semi-quantitative scales to determine flaking and abrasion. These flaking and abrasion scores were combined with weight change (if any) to create a cutaneous toxicity score (Blackjack score).
A visual grading scale was used for characterizing topical irritation on a daily basis. The grading scale used is as follows:
The flaking and abrasion observations were combined with body weight observations to calculate a single, semiquantitative topical or cutaneous “toxicity score” as detailed below. The toxicity score (also known as “blackjack score” since the theoretical maximum is 21) takes into account the maximal severity, and the time of onset of skin flaking and abrasions and the extent of weight between the first and last days of the experiment. Below are listed the seven numerical components of the toxicity score and an explanation of how those values are combined to calculate the toxicity score.
Flaking onset score (2) and average severity score (3) are summed and divided by two. The quotient is added to the maximal severity score (1). Composite flaking scores are calculated for each individual animal in a group, averaged, and rounded to the nearest integer. Values can range from 0-9.
Abrasion onset score (5) and average severity score (6) are summed and divided by two. The quotient is added to the maximal severity score (4). Composite abrasion scores are calculated for each individual animal in a group, averaged and rounded to the nearest integer. Values can range from 0-8.
Composite flaking score, composite abrasion score, and systemic toxicity score are summed to give the “toxicity score.” Toxicity scores are calculated for each individual animal in a group, averaged, and rounded to the nearest integer. Values can range from 0-21 and are expressed in Table 1A below as the mean ±SD of the values for a group.

Structure (SMILES)	Cutaneous Toxicity Score (Blackjack Score) (100 nmole (nmol/25 g))	Cutaneous Toxicity Score (Blackjack Score) (300 nmole (nmol/25 g))	Cutaneous Toxicity Score (Blackjack Score) (1000 nmole (nmol/25 g))
CCN(Cc1ccc(C#Cc2ccc(CC(=O)O)cc2)cc1C)C1CC1 [Compound 131]	1 ± 1	0 ± 1	1 ± 1
CC1(C)CCC(=O)c2ccc(C#Cc3ccc(CC(=O)O)c(F)c3)cc21 [Compound 15, [2-Fluoro-4-(8.8-dimethyl-5-oxo-5,6,7,8-tetrahydro-naphthalene-2-yl-ethynyl)phenyl]-acetic acid]	1 ± 1		5 ± 2
